The conditions of data set [1]: for AUCinf / C max: geometric mean ± SD; for CL/F: arithmetic mean ± SD; for t max: median (range).
The next data set can be described thus: Safety assessments. In kind it is in vivo, human.
Data set [2] is classed as in vivo, human. As to conditions: for CL/F: arithmetic mean ± SD.
Data set [3] is classed as in vivo, human. As to conditions: for CL/F: arithmetic mean ± SD. This is another data set of the same source.
For data set [4] the following is noted: healthy volunteers; cited from earlier work.
The next data set concerns CYP2B6. Particulars: cited from earlier work.
Data set [5] has as its system CYP2C19. As to conditions: cited from earlier work.
For another data set, the system named is CYP3A4. As to conditions: in vitro; ref unpublished data; cited from earlier work.
Another data set has as its system CYP2C9. Particulars: in vitro; ref unpublished data; cited from earlier work.
Data set [6] relates to CYP2C19. As to conditions: in vitro; ref unpublished data; cited from earlier work.
The conditions of data set [7]: healthy volunteers; cited from earlier work. The source holds these as a separate data set.
Another data set deals with prothrombin time (PT). The data set is described as follows: Study 15L-CL-018: warfarin pharmacodynamics. In kind it is in vivo, human. As to conditions: for AUCPT;0–168 h: geometric mean ± SD.
Data set [8] is classed as in vivo, human. Particulars: for CL/F: arithmetic mean ± SD. The source holds these as a separate data set.
[9] abbreviates: warfarin 25 mg + amenamevir 200 mg once daily, n = 18.
Setting [10] is: warfarin 25 mg + amenamevir 400 mg once daily, n = 15.
Where [11] appears, read: warfarin 25 mg alone, amenamevir 400 mg group, n = 17.
[12] abbreviates: warfarin + amenamevir 200 mg once daily.
[13] abbreviates: warfarin + amenamevir 400 mg once daily.
Where [14] appears, read: warfarin alone, amenamevir 200 mg group.
Setting [15] is: warfarin alone, amenamevir 400 mg group.
Setting [16] is: with ketoconazole coadministration vs amenamevir alone.
Where [17] appears, read: in the presence of rifampicin vs amenamevir alone.

The structures appear in SMILES notation. Like-named read-outs stand apart in the source and are kept apart here.

By CL/F is commonly meant the apparent clearance, not corrected for the fraction that reaches the circulation. For `CC(=O)C[C@@H](c1ccccc1)c1c(O)c2ccccc2oc1=O` [(S)-Warfarin, (S)-warfarin], the AUCinf was 46,725 ± 18,437 ng h/mL in [1] (setting [9]), 45,032 ± 23,503 ng h/mL in data set [1] (setting [10]) and 50,329 ± 24,609 ng h/mL in [1] (setting [11]). The CL/F in [1] (setting [12]) is 0.26 ± 0.07 L/h; in [1] (setting [13]), 0.27 ± 0.08 L/h; in data set [1] (setting [14]) it was 0.25 ± 0.07 L/h; in [1] (setting [15]), 0.25 ± 0.08 L/h. Moreover, the C max came out at 1217 ± 134 ng/mL in data set [1] (setting [12]), 1251 ± 237 ng/mL in data set [1] (setting [13]), 1194 ± 132 ng/mL in data set [1] (setting [14]) and 1168 ± 162 ng/mL in data set [1] (setting [15]). For the same compound, the t max in data set [1] (setting [12]) is 4.0 (1.0–4.0) h; in data set [1] (setting [13]), 2.0 (1.0–4.0) h; in [1] (setting [14]), 4.0 (2.0–4.0) h; in data set [1] (setting [15]) it was 4.0 (1.0–4.0) h.

On to `CC(=O)N1CCN(c2ccc(OCC3COC(Cn4ccnc4)(c4ccc(Cl)cc4Cl)O3)cc2)CC1` (centres unmarked) [ketoconazole], for which, in the data set “Safety assessments” (study 15L-CL-008, during the treatment named, n = 22), the “participants reporting headache (TEAE)” value is reported as 18.2%.

For `CC(=O)C[C@H](c1ccccc1)c1c(O)c2ccccc2oc1=O` [(R)-Warfarin, (R)-warfarin], the AUCinf in data set [1] (setting [9]) is on record as 67,092 ± 18,315 ng h/mL; in data set [1] (setting [10]), 68,723 ± 12,736 ng h/mL; in data set [1] (setting [11]), 75,652 ± 18,160 ng h/mL. Besides, the apparent clearance CL/F in data set [1] (setting [12]) came out at 0.18 ± 0.04 L/h; in data set [1] (setting [13]) it was 0.17 ± 0.03 L/h; in data set [1] (setting [14]), 0.17 ± 0.04 L/h; in data set [1] (setting [15]), 0.16 ± 0.04 L/h. Besides, the C max in data set [1] (setting [12]) is 1240 ± 134 ng/mL; in [1] (setting [13]), 1262 ± 232 ng/mL; in data set [1] (setting [14]) it was 1197 ± 133 ng/mL; in data set [1] (setting [15]), 1187 ± 149 ng/mL. The t max in [1] (setting [12]) is 4.0 (1.0–12.0) h; in [1] (setting [13]), 4.0 (2.0–12.0) h; in [1] (setting [14]) it was 4.0 (2.0–4.0) h; in data set [1] (setting [15]), 4.0 (2.0–12.0) h.

Broadly, the Cmax is the peak of the concentration-time curve. One may read the half-life as the time needed for the level to fall by half in the phase considered. A higher half-life goes with slow decline. For the compound `Cc1cccc(C)c1N(CC(=O)Nc1ccc(-c2ncon2)cc1)C(=O)C1CCS(=O)(=O)CC1` [Amenamevir, amenamevir], the apparent clearance (CL/F) in data set [2] (amenamevir 400 mg + ketoconazole 400 mg once daily) worked out at 8.0 ± 2.1 L/h; in data set [2] (amenamevir 400 mg alone) it was 20.8 ± 5.9 L/h; in data set [3] (amenamevir 400 mg + rifampicin 600 mg once daily) it was 133.5 ± 40.0 L/h; in data set [3] (amenamevir 400 mg alone) it was 22.1 ± 5.9 L/h. In data set [2] (based on AUCinf), the “pharmacokinetic interaction with ketoconazole (90% CI of LS GMR vs 0.80–1.25)” value is on record as “significant interaction”. The highest concentration (Cmax) came to 1450 ± 329 ng/mL in data set [2] (human, plasma, oral, 400 mg) and 1320 ± 282 ng/mL in data set [3] (human, plasma, oral, 400 mg). Further, the half-life in [2] (human, plasma, oral, 400 mg) is 8.1 ± 1.9 h; in data set [3] (human, plasma, oral, 400 mg), 8 ± 1.2 h. In addition, the t max in [2] (human, plasma, oral, 400 mg) is 4 h; in [3] (human, plasma, oral, 400 mg), 3 h. Also, the “decrease of CL/F” value in data set [2] (setting [16]) is given as 2.6 fold. In addition, in data set [2] (setting [16]), the “increase of mean t ½” value amounted to 2.2 fold. For the same compound, the “pharmacokinetic interaction with rifampicin (90% CI of LS GMR vs 0.80–1.25)” value in [3] (based on C max and AUCinf) was “significant interaction”. The “decrease of mean t ½” value in data set [3] (setting [17]) came out at 2.7 fold. In addition, the “increase of mean CL/F” value in data set [3] (setting [17]) is on record as “sixfold”. Moreover, in “Safety assessments” (across all four studies), the “deaths, serious adverse events” value is given as “no deaths or serious adverse events reported”. For the same compound, the safety and tolerability entry in the data set “Safety assessments” (across all four studies, healthy male adults) is “safe and generally well tolerated”. For the same compound, the “participants reporting TEAEs” value in the data set “Safety assessments” (study 15L-CL-010, group that received the 200-mg dose of amenamevir (with single doses of midazolam 7.5 mg)) is recorded as 9.1%; in the data set “Safety assessments” (study 15L-CL-010, group that received the 400-mg dose of amenamevir (with single doses of midazolam 7.5 mg)), 9.1%. Also, the “TEAEs considered to be related to the study drug” value in “Safety assessments” (study 15L-CL-018, 200-mg amenamevir dose) was “myalgia”; in “Safety assessments” (study 15L-CL-018, 400-mg amenamevir dose), “back pain, abdominal pain, and dyspepsia”. In data set [4], the “urinary excretion as unchanged drug” value is listed as “approximately 10%”. Moreover, the “correlation of metabolism with marker-enzyme activity” value in the data set on CYP2B6 and in the data set on CYP2C19 [5] was “significantly correlated” throughout. Also, the “induction of enzyme activity” value with CYP3A4 is given as “potentially induces”; in the data set on CYP2C9, “potentially induces”; with CYP2C19 [6], “weak potential for inducing”. Besides, the “change of AUCinf when administered with food” value in data set [7] is listed as “almost doubling”.

In the case of `CC(=O)CC(c1ccccc1)c1c(O)c2ccccc2oc1=O` (centres unmarked) [Warfarin, warfarin], the “AUCPT;0–168 h” value is reported as 2411 ± 199 s h in the data set with prothrombin time (PT) (warfarin + amenamevir 200 mg once daily, n = 18); 2425 ± 163 s h with prothrombin time (PT) (warfarin + amenamevir 400 mg once daily, n = 15); 2556 ± 254 s h in the data set on prothrombin time (PT) (warfarin alone, amenamevir 400 mg group, n = 17). Further, the tPTmax in the data set with prothrombin time (PT) (warfarin alone, amenamevir 400 mg group, arithmetic mean ± SD) came to 39.5 ± 14.6 h. Moreover, the “TEAEs considered to be related to the study drug” value in “Safety assessments” (study 15L-CL-018, warfarin 25 mg alone) was “nausea and dyspepsia”.

For `Cc1ncc2n1-c1ccc(Cl)cc1C(c1ccccc1F)=NC2` [Midazolam, midazolam], the “pharmacokinetic interaction with amenamevir (90% CI of LS GMR vs 0.80–1.25)” value is “significant interaction” in data set [8] (amenamevir 400 mg once daily, based on C max and AUCinf); “significant interaction” in data set [8] (amenamevir 200-mg dose, based on AUCinf). The t max in data set [8] (human, plasma, oral, 200 mg) was 1.5 h; in data set [8] (human, plasma, oral, 400 mg), 1.5 h; in data set [8] (midazolam + amenamevir 400 mg once daily, median (range)) it was 1.0 (0.5–4.0) h. For the same compound, the CL/F in data set [8] (midazolam + amenamevir 200 mg once daily) is 109.0 ± 43.4 L/h; in data set [8] (midazolam + amenamevir 400 mg once daily), 143.8 ± 68.0 L/h; in data set [8] (midazolam alone, amenamevir 200 mg group), 80.1 ± 37.0 L/h; in data set [8] (midazolam alone, amenamevir 400 mg group), 78.2 ± 39.2 L/h.

The values are drawn from paper PMC5702381 (Advances in Therapy, 2017).
